Measurements: US20170202939A1, “PERSONALIZED CANCER VACCINES AND METHODS THEREFOR” (Washington University, priority 2014, published 2017)
No end group written: not given here.

Tested on: neoantigen-specific CD8+ T cells
Experiment: immune monitoring of vaccinated patients, HLA/peptide dextramer (tetramer) assay on cultured PBMC
Assay type: in vivo, human
Conditions: for Immunogenicity: AAS-directed CD8+ T cell response in vaccinated patient; for frequency of neoantigen-specific CD8+ T cells / T cell response upon vaccination: post-vaccine PBMC, dextramer assay; for frequency of neoantigen-specific CD8+ T cells: upon culture, at the peak of response; for Spontaneous Immunity: pre-vaccine (naturally-occurring) CD8+ T cell response, immune monitoring assay; for pre-existing (naturally occurring) T cell immunity: pre-vaccine PBMC samples after in vitro stimulation
Procedure: Immunologic monitoring (Examples 1-10). Immunologic analysis to evaluate the kinetics and magnitude of T cell response to gp100 peptides was performed using PBMCs collected weekly (prior to vaccination and until week 21. Fresh PBMCs obtained by Ficoll-Hypaque gradient centrifugation were adjusted to 2×10^6 cells/ml in Stemline media (Sigma-Aldrich) containing 5% human AB-serum, and dispersed at 1 ml/well in 24-well plates. Cultures were set up for the gp100 peptides and the CMV pp65 peptide (positive peptide control). Cultures were pulsed with 40 μg/ml peptide and 50 U/ml IL-2 fed starting at 48 hours and every other day thereafter. On day 12 (peak of response; the inventors' unpublished observation), cultures were harvested, counted, and stained for flow cytometry analysis. To assess the antigen-specific T cell frequency, cells were stained with HLAA*0201/peptide tetramers (Beckman Coulter) for 30 minutes at room temperature, followed by addition of FITC-conjugated CD4, CD14, CD19, and CD56 and allophycocyanin-conjugated CD8 (Invitrogen) for 15 minutes at 4° C. Cells were washed and resuspended in FACS buffer, and 7AAD was added 5 minutes before analysis. Control CMV pp65-specific CD8+ T cells were detected in all CMV-seropositive patients before and after immunization. A negative HLA-A*0201/HIV gag peptide tetramer control was included. 25,000 events in the CD8+ gate were collected using a hierarchical gating strategy that included FSC/SSC and excluded 7AAD+ (dead) cells and CD4+CD14+CD19+CD56+ cells. Data were acquired and analyzed using Flow-Jo software.
To examine the kinetics and magnitude of T cell immunity to AAS peptides upon vaccination, peripheral blood mononuclear cells (PBMC) were collected prior to vaccination and weekly thereafter. The CD8+ T cell response to each peptide was analyzed using a HLA-A*02:01/AAS-peptide dextramer assay after a single round of in vitro stimulation. FIG. 30A illustrates kinetics of immune responses to neoantigens. Time is recorded in weeks (0 indicates pre-vaccination). Culture conditions and staining details are described infra. Antigen-specific numbers were calculated based on dextramer percentage and total live cell yields. Immunologic analysis to evaluate the kinetic and magnitude of T cell response to AAS-encoding and gp100-derived peptides was performed using PBMC collected weekly, starting before DC vaccination (Pre-vaccine in the figures) as described (Carreno, B. M., et al., J. Clin. Invest., 123, 3383-3394, 2013). Briefly, fresh PBMC obtained by Ficoll-Paque PLUS gradient centrifugation were cultured with 40 ug/mL peptide and IL-2 (50 U/mL). On day 10 (peak of response, unpublished data, labeled “Post-Vaccine” in the figures), neoantigen specific T cell frequencies were determined by staining with HLA-A*02:01/peptide dextramers (Immudex), followed by addition of FITC-CD4, -CD14, -CD19 (Invitrogen) and ALEXA® 488-CD56 (BD Pharmigen), APC-CD8 (Invitrogen). Cells were washed, resuspended in FACS buffer containing 7AAD. Twenty five thousand events in the CD8+ gate were collected using a hierarchical gating strategy that included FSC/SSC and excluded 7AAD-positive (dead cells) and CD4/14/19/56-positive cells. PBMC/CD8+ T cells derived from an unrelated HLA-A*02:01 patient were used as negative controls for assessing specificity of HLA-A*02:01/AAS-peptide dextramers (data not shown). Data were acquired and analyzed using Flow-Jo software. […] FIG. 30B illustrates the frequency of neoantigen specific T cells in CD8+ populations isolated directly from PBMC samples and after ex-vivo expansion using autologous DC and artificial antigen presenting cells. For dominant neoantigens TMEM48 F169L, SEC24A P469L and EXOC8 Q656, results are shown for samples obtained before vaccination (Pre-vaccine) and after 3 vaccine doses (Post-vaccine). For remaining neoantigens, results obtained with post-vaccine PBMC samples are shown. […]

Sequence | Immunogenicity | frequency of neoantigen-specific CD8+ T cells | Spontaneous Immunity | pre-existing (naturally occurring) T cell immunity | T cell response upon vaccination
CLNEYHLFL | Yes | 23% | Yes | could be detected in pre-vaccine PBMC samples | –
IILVAVPHV | – | 89% | – | could be detected in pre-vaccine PBMC samples | –
KLMNIQQKL | Yes | 47% | No | – | reveal two additional ones
MLGEQLFPL | Yes | 84% | No | – | –
QLSCISTYV | Yes | 42% | No | – | reveal two additional ones
